From US8759537B2, “3H-imidazo [4, 5-C] pyridine-6-carboxamides as anti-inflammatory agents” (Boehringer Ingelheim International GmbH, priority 2010, dated 2014) come the findings set out here.

A word on the IC50: it is the concentration at which inhibition is half-maximal.

The target in the test is mPGES-1 (Homo sapiens (Human), UniProt O14684). In words: A549 cell-based assay (PGE2 formation, IL-1β stimulated, 50% human serum). The following applies: A549 cells, IL-1β 5 ng/ml, read-out: mPGES-1 inhibitory effect in the cell assay, IC50. As for the experimental part:
Although the enzymatic assay is a high throughput assay the disadvantage is that it uses a recombinant protein which is not in its natural environment. Accordingly a cellular assay was established in which a cell line of human origin (A549) expressing the mPGES-1 protein was used. In addition in order to mimic the situation in humans in which compounds can be bound to plasma proteins 50% human serum is added in the assay.
Cells were detached using Trypsin-EDTA. A549 cells were seeded in a 384-well collagene plate at a density of 7000 cells/well (50 μl) in F-12 medium containing 1% Penicillin-Streptomycin and 50% human serum. The cells were allowed to attach for 3-4 h. […] The total volume is 100 μl.
Concentrations of PGE2 in the cell free medium (10 μl) were measured using a commercially available HTRF kit from Cisbio (as described above). The PGE2 formation in the absence of test compound was taken as 100%.
IC50 values were derived from at 6-8 point titrations using conventional software.

A value given as a limit tells only on which side of the number the result lay.

Sequence of mPGES-1 (O14684 whole entry): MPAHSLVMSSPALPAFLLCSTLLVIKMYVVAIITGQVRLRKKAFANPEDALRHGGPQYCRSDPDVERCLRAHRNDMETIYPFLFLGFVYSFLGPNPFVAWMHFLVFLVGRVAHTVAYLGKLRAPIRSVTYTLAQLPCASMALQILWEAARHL

For `Cn1c(Nc2c(Cl)ccc(CNC(=O)C(C)(C)C)c2Cl)nc2cc(C(=O)Nc3ccc(Br)cc3)c(F)cc21` [Example 7], the half-inhibitory concentration (IC50) worked out at 1 nM. The value for `CC(C)(C)C(=O)NCc1ccc(F)c(Nc2nc3cc(C(=O)Nc4ccc(Br)cc4)c(OCC(F)F)cc3n2C2CC2)c1F` [Example 11] was 4 nM. Turning to `Cn1c(Nc2c(Cl)ccc(CNC(=O)C(C)(C)C)c2Cl)nc2cc(C(=O)Nc3cccc(C#N)c3)c(OCC(F)F)cc21` [Example 28], the concentration for half-maximal inhibition (IC50) stood at 1 nM. In the case of `CC(C)(C)C(=O)NCc1ccc(Cl)c(Nc2nc3cc(OC(F)F)c(C(=O)N[C@H]4CC[C@H](C(F)(F)F)CC4)cc3[nH]2)c1Cl` [Example 78] it was 8 nM. The value for `CC(C)(C)C(=O)NCc1ccc(Cl)c(Nc2nc3c(F)c(OCC(F)(F)F)c(C(=O)N[C@H]4CC[C@H](C(F)(F)F)CC4)cc3[nH]2)c1Cl` [Example 79] was 1 nM; that for `Cn1c(Nc2c(Cl)ccc(CNC(=O)C(C)(C)F)c2Cl)nc2cc(C(=O)Nc3ccc(F)c(Cl)c3)c(OCC(F)F)cc21` [Example 84, N-(3-Chloro-4-fluoro-phenyl)-2-{2,6-dichloro-3-[(2-fluoro-2-methyl-propionylamino)-methyl]-phenylamino}-6-(2,2-difluoroethoxy)-1-methyl-1H-benzimidazole-5-carboxylic acid amide] was below 1 nM.

On to `Cn1c(Nc2c(Cl)ccc(CNC(=O)C3(C(F)(F)F)CCC3)c2Cl)nc2cc(C(=O)NCC(F)(F)F)c(OCC(F)F)cc21` [Example 86], for which the half-maximal inhibitory concentration (IC50) was below 1 nM. Regarding `Cn1c(Nc2c(Cl)ccc(CNC(=O)C(N)C(F)(F)F)c2Cl)nc2cc(C(=O)NCC(F)(F)F)c(OCC(F)F)cc21` (centres unmarked) [Example 87], the concentration for half-maximal inhibition (IC50) was 221 nM. The value for `Cn1c(Nc2c(Cl)ccc(CNC(=O)CC3CC3)c2Cl)nc2cc(C(=O)NCC(F)(F)F)c(OCC(F)F)cc21` [Example 88] was 68 nM. The value for `Cn1c(Nc2c(Cl)ccc(CNC(=O)C3CCCO3)c2Cl)nc2cc(C(=O)NCC(F)(F)F)c(OCC(F)F)cc21` (centres unmarked) [Example 90] was 36 nM; that for `Cn1c(Nc2c(Cl)ccc(CNC(=O)C3CCC3)c2Cl)nc2cc(C(=O)NCC(F)(F)F)c(OCC(F)F)cc21` [Example 91] was 10 nM. The value for `Cn1c(Nc2c(Cl)ccc(CNC(=O)c3ccc(Cl)s3)c2Cl)nc2cc(C(=O)NCC(F)(F)F)c(OCC(F)F)cc21` [Example 92] was 9 nM; that for `Cn1c(Nc2c(Cl)ccc(CNC(=O)C3(O)CC3)c2Cl)nc2cc(C(=O)NCC(F)(F)F)c(OCC(F)F)cc21` [Example 93] was 66 nM. Consider `Cn1c(Nc2c(Cl)ccc(CNC(=O)C(C)(F)F)c2Cl)nc2cc(C(=O)NCC(F)(F)F)c(OCC(F)F)cc21` [Example 95], for which the IC50 was 13 nM.

In the case of `Cn1c(Nc2c(Cl)ccc(CNC(=O)C(O)C(F)(F)F)c2Cl)nc2cc(C(=O)NCC(F)(F)F)c(OCC(F)F)cc21` (centres unmarked) [Example 96], the concentration for half-maximal inhibition (IC50) was 14 nM. The value for `Cn1c(Nc2c(Cl)ccc(CNC(=O)C(C)(N)C(F)(F)F)c2Cl)nc2cc(C(=O)NCC(F)(F)F)c(OCC(F)F)cc21` (centres unmarked) [Example 98] was 2 nM; that for `Cn1c(Nc2c(Cl)ccc(CNC(=O)C3CC3)c2Cl)nc2cc(C(=O)NCC(F)(F)F)c(OCC(F)F)cc21` [Example 100] was 52 nM; that for `COCC(=O)NCc1ccc(Cl)c(Nc2nc3cc(C(=O)NCC(F)(F)F)c(OCC(F)F)cc3n2C)c1Cl` [Example 101] was 11 nM. In the case of `Cn1c(Nc2c(Cl)ccc(CNC(=O)C3CC(F)(F)C3)c2Cl)nc2cc(C(=O)NCC(F)(F)F)c(OCC(F)F)cc21` [Example 102] it was 15 nM.

With `Cn1c(Nc2c(Cl)ccc(CNC(=O)C3(C)CC3)c2Cl)nc2cc(C(=O)NCC(F)(F)F)c(OCC(F)F)cc21` [Example 103], the 50% inhibitory concentration (IC50) is 18 nM. `Cn1c(Nc2c(Cl)ccc(CNC(=O)c3ccno3)c2Cl)nc2cc(C(=O)NCC(F)(F)F)c(OCC(F)F)cc21` [Example 107]: the half-maximal inhibitory concentration (IC50) turned out to be 106 nM. With `Cn1c(Nc2c(Cl)ccc(CNC(=O)C(C)(C)O)c2Cl)nc2cc(C(=O)NCC(F)(F)F)c(OCC(F)F)cc21` [Example 108], the half-inhibitory concentration (IC50) was determined as 59 nM. The value for `C[C@H](O)C(=O)NCc1ccc(Cl)c(Nc2nc3cc(C(=O)NCC(F)(F)F)c(OCC(F)F)cc3n2C)c1Cl` [Example 109] was 57 nM; that for `CC(C)C(=O)NCc1ccc(Cl)c(Nc2nc3cc(C(=O)NCC(F)(F)F)c(OCC(F)F)cc3n2C)c1Cl` [Example 110] was 8 nM; that for `CCC(=O)NCc1ccc(Cl)c(Nc2nc3cc(C(=O)NCC(F)(F)F)c(OCC(F)F)cc3n2C)c1Cl` [Example 111] was 7 nM. Turning to `Cn1c(Nc2c(Cl)ccc(CNC(=O)CC#N)c2Cl)nc2cc(C(=O)NCC(F)(F)F)c(OCC(F)F)cc21` [Example 112], the IC50 was 19 nM. Take `Cn1c(Nc2c(Cl)ccc(CNC(=O)C3(C#N)CC3)c2Cl)nc2cc(C(=O)NCC(F)(F)F)c(OCC(F)F)cc21` [Example 113]: the IC50 was found to be 25 nM. Regarding `CC(=O)NCc1ccc(Cl)c(Nc2nc3cc(C(=O)NCC(F)(F)F)c(OCC(F)F)cc3n2C)c1Cl` [Example 115], the IC50 amounted to 300 nM. In the case of `Cn1c(Nc2c(Cl)ccc(CNC(=O)C(C)(C)CO)c2Cl)nc2cc(C(=O)NCC(F)(F)F)c(OCC(F)F)cc21` [Example 126] it was 72 nM. Consider `Cn1c(Nc2c(Cl)ccc(CNC(=O)c3cc[nH]n3)c2Cl)nc2cc(C(=O)NCC(F)(F)F)c(OCC(F)F)cc21` [Example 127], for which the 50% inhibitory concentration (IC50) came out at 85 nM.

As to `Cn1c(Nc2c(Cl)ccc(CNC(=O)CC(F)(F)F)c2Cl)nc2cc(C(=O)NCC(F)(F)F)c(OCC(F)F)cc21` [Example 128], the IC50 was determined as 26 nM. In the case of `COC(C)(C)C(=O)NCc1ccc(Cl)c(Nc2nc3cc(C(=O)NCC(F)(F)F)c(OCC(F)F)cc3n2C)c1Cl` [Example 130] it was 3 nM. As to `Cn1c(Nc2c(Cl)ccc(CNC(=O)CC(F)(F)F)c2Cl)nc2cc(C(=O)Nc3ccc(F)c(Cl)c3)c(OCC(F)F)cc21` [Example 131], the IC50 amounted to 1 nM.

Regarding `CCCC(=O)NCc1ccc(Cl)c(Nc2nc3cc(C(=O)Nc4ccc(F)c(Cl)c4)c(OCC(F)F)cc3n2C)c1Cl` [Example 132], the IC50 was 2 nM. In the case of `Cn1c(Nc2c(Cl)ccc(CNC(=O)C3(C)CC3)c2Cl)nc2cc(C(=O)Nc3ccc(F)c(Cl)c3)c(OCC(F)F)cc21` [Example 133] it was 1 nM; in that of `Cn1c(Nc2c(Cl)ccc(CNC(=O)c3cc[nH]n3)c2Cl)nc2cc(C(=O)Nc3ccc(F)c(Cl)c3)c(OCC(F)F)cc21` [Example 134], 8 nM; in that of `COC(C)(C)C(=O)NCc1ccc(Cl)c(Nc2nc3cc(C(=O)Nc4ccc(F)c(Cl)c4)c(OCC(F)F)cc3n2C)c1Cl` [Example 135], below 1 nM.

On to `Cn1c(Nc2c(Cl)ccc(CNC(=O)c3cc(C(F)(F)F)n[nH]3)c2Cl)nc2cc(C(=O)Nc3ccc(F)c(Cl)c3)c(OCC(F)F)cc21` [Example 136], for which the IC50 worked out at 17 nM. The value for `Cn1c(Nc2c(Cl)ccc(CNC(=O)C3CCCO3)c2Cl)nc2cc(C(=O)Nc3ccc(F)c(Cl)c3)c(OCC(F)F)cc21` (centres unmarked) [Example 137] was 4 nM; that for `Cc1nc(C)c(C(=O)NCc2ccc(Cl)c(Nc3nc4cc(C(=O)Nc5ccc(F)c(Cl)c5)c(OCC(F)F)cc4n3C)c2Cl)s1` [Example 138] was 49 nM. With `Cn1c(Nc2c(Cl)ccc(CNC(=O)CO)c2Cl)nc2cc(C(=O)Nc3ccc(F)c(Cl)c3)c(OCC(F)F)cc21` [Example 139], the concentration for half-maximal inhibition (IC50) came to 27 nM. The value for `CC(C(=O)NCc1ccc(Cl)c(Nc2nc3cc(C(=O)Nc4ccc(F)c(Cl)c4)c(OCC(F)F)cc3n2C)c1Cl)C(F)(F)F` (centres unmarked) [Example 141] was below 1 nM; that for `Cn1cccc1C(=O)NCc1ccc(Cl)c(Nc2nc3cc(C(=O)Nc4ccc(F)c(Cl)c4)c(OCC(F)F)cc3n2C)c1Cl` [Example 142] was 2.5 nM. Regarding `Cn1c(Nc2c(Cl)ccc(CNC(=O)CC3CC3)c2Cl)nc2cc(C(=O)Nc3ccc(F)c(Cl)c3)c(OCC(F)F)cc21` [Example 144], the IC50 amounted to 2 nM. The value for `Cn1c(Nc2c(Cl)ccc(CNC(=O)C3(C#N)CC3)c2Cl)nc2cc(C(=O)Nc3ccc(F)c(Cl)c3)c(OCC(F)F)cc21` [Example 145] was 7 nM; that for `CCC(=O)NCc1ccc(Cl)c(Nc2nc3cc(C(=O)Nc4ccc(F)c(Cl)c4)c(OCC(F)F)cc3n2C)c1Cl` [Example 146] was 2 nM; that for `CC(O)C(=O)NCc1ccc(Cl)c(Nc2nc3cc(C(=O)Nc4ccc(F)c(Cl)c4)c(OCC(F)F)cc3n2C)c1Cl` (centres unmarked) [Example 147] was 4 nM. The value for `Cn1c(Nc2c(Cl)ccc(CNC(=O)C3CC3)c2Cl)nc2cc(C(=O)Nc3ccc(F)c(Cl)c3)c(OCC(F)F)cc21` [Example 148] was 2 nM. The value for `Cn1c(Nc2c(Cl)ccc(CNC(=O)C(C)(O)C(F)(F)F)c2Cl)nc2cc(C(=O)Nc3ccc(F)c(Cl)c3)c(OCC(F)F)cc21` (centres unmarked) [Example 149] was 1 nM; that for `Cn1c(Nc2c(Cl)ccc(CNC(=O)C3(C)COC3)c2Cl)nc2cc(C(=O)Nc3ccc(F)c(Cl)c3)c(OCC(F)F)cc21` [Example 150] was 1 nM; that for `CC(C)C(=O)NCc1ccc(Cl)c(Nc2nc3cc(C(=O)Nc4ccc(F)c(Cl)c4)c(OCC(F)F)cc3n2C)c1Cl` [Example 151] was 1 nM. Regarding `Cn1c(Nc2c(Cl)ccc(CNC(=O)C(C)(N)C(F)(F)F)c2Cl)nc2cc(C(=O)Nc3ccc(F)c(Cl)c3)c(OCC(F)F)cc21` (centres unmarked) [Example 152], the concentration for half-maximal inhibition (IC50) was below 1 nM.

`Cn1c(Nc2c(Cl)ccc(CNC(=O)C3CC3(F)F)c2Cl)nc2cc(C(=O)Nc3ccc(F)c(Cl)c3)c(OCC(F)F)cc21` (centres unmarked) [Example 153]: the half-inhibitory concentration (IC50) was found to be 3 nM.
